From patent US12454703B2, “Controllable transcription” (Cambridge Enterprise Limited (GB/GB), priority 2016, dated 2025)

Tests used:
induced myocytes = test: Contraction of induced skeletal myocytes; type: cell-based, human; conditions: nanomolar concentrations
[1] = test system: EGFPd2 homozygous sOPTiKO hESCs; test: Inducible CRISPR/Cas9 knockout of EGFPd2 reporter in hESCs; type: cell-based, human
Description: For single site OPTIKO, AAVS1 targeting was performed by nucleofection. hESCs pre-treated for 16 h with 10 μM Y-27632 (Tocris) were dissociated to clumps of 2-8 cells using Accutase (Gibco), and 2×10^6 cells were nucleofected in 100 μl with a total of 12 μg of DNA (4 μg each for the two ZFN plasmids, and 2 μg each for the two targeting vectors) using the Lonza P3 Primary Cell 4D-Nucleofector X Kit and the cycle CA-137 on a Lonza 4D-Nucleofector System, all according to manufacturer's instructions. Nucleofected hESCs were plated onto a feeder layer of irradiated DR4 (puromycin and neomycin resistant) mouse embryonic fibroblasts and cultured in KSR media supplemented with 4 ng ml-1 FGF2 and 10 μM Y-27632 (this last only for the first 24 h). After 4 days, hPSC colonies carrying both puromycin and neomycin resistance gene were selected for 7-10 days with 25 μg ml-1 of Geneticin (G418 Sulfate, Gibco) and 0.5 μg ml-1 Puromycin. Individual clones were then picked and expanded in feeder-free conditions.
Unless otherwise described in the figure legends or Examples, tetracycline hydrochloride (sigma-Aldrich) was used at 1 μg ml^−1 to induce gene knockdown or knockout. Induction of neurons Pluripotent OPTi-NGN2 cells were dissociated into single cells with TrypLE and plated onto Matrigel (35 μg/cm^2, Scientific Laboratory Supplies) coated dishes at a density of 75.000 cells per well of a 12 well plate. […] After 2 days of induction, the medium was switched to Neurobasal-medium supplemented with Glutamax (100×), B27 (50×, Gibco), BDNF (10 ng/ml, Peprotech), NT3 (10 ng/ml, R&D Systems), Penicillin/Streptomycin (1%), and doxycycline (1 μg/ml).

Description for OPTi-MYOD1 hPSCs: Pluripotent OPTi-MYOD1 cells were dissociated into single cells with TrypLE and plated onto gelatine/MEF-medium coated dishes at a density of 100.000 cells per well of a 12 well plate. Forward programming was initiated 24-48 hours after the split. […] After 5 days of induction, the medium was supplemented with CHIR99021 (3 μM, Tocris) and heat-inactivated horse serum (2%, Gibco) to enhance maturation.
For analysis of EGFP expression cells were harvested with TrypLE Select (Gibco) for 5-10 minutes at 37° C. to obtain a single cell suspension. Following a wash with PBS, cells were resuspended in ice-cold PBS supplemented with DAPI (10 μg/ml), and incubated for 5 minutes on ice. Cells were analyzed using a Cyan ADP flow-cytometer to determine the levels of EGFP expression of viable cells (DAPI negative). For staining and analysis of myosin heavy chain expression cells were harvested with TrypLE Select (as for EGFP expression analysis), washed once with PBS, and fixed and permeabilized with Cytofix/Cytoperm solution (BD Biosciences). Subsequently, cells were washed and blocked in Perm/Wash buffer (BD Biosciences) supplemented with 3% bovine serum albumin (BSA) at +4° C. overnight. […] After three washes with Perm/Wash buffer cells were analyzed with a Cyan ADP flowcytometer to determine the levels of MHC expression. […]

CC1=C(/C=C/C(C)=C/C=C/C(C)=C/C(=O)O)C(C)(C)CCC1 [all-trans retinoic acid]
conversion into myogenin and myosin heavy chain (MHC) double-positive myocytes (OPTi-MYOD1 hPSCs; in conjunction with MYOD1 overexpression, by day 5 after induction): rapid and near-complete conversion | nature of the RA effect on myocyte conversion (OPTi-MYOD1 hPSCs; mediated through RA-receptor isoforms RARa and RARB): concentration dependent

C[N+](C)(C)CCOC(N)=O [carbachol]
muscle fiber contraction (induced myocytes): complete muscle fiber contraction

CN(C)[C@@H]1C(O)=C(C(N)=O)C(=O)[C@@]2(O)C(O)=C3C(=O)c4c(O)cccc4[C@@](C)(O)[C@H]3C[C@@H]12 [tetracycline]
reduction in EGFPd2 fluorescence ([1]; five days following tetracycline induction, EGFPd2 homozygous cells): 50% | knockout ([1]; optimal gRNA sequence, 2 days of induction): up to 90% | EGFPd2 homozygous cells with full loss of EGFPd2 fluorescence ([1]; prolonged treatment with tetracycline): up to 75% | knockout efficiency ([1]; simultaneous induction of three copies of the same gRNA): 95%
